Data reported in ChEMBL document CHEMBL4342462, “Discovery and Characterization of 2,5-Substituted Benzoic Acid Dual Inhibitors of the Anti-apoptotic Mcl-1 and Bfl-1 Proteins” (J Med Chem, 2020).
pKd, pKi: −log10 of the molar value. Activity calls are given as the source filed them. No cut-off for these calls is given here.

Tests used:
[1] = target: T1, Induced myeloid leukemia cell differentiation protein Mcl-1 (Homo sapiens, UniProt Q07820)
Description: Inhibition of N-terminal His6-tagged human Mcl1 expressed in Escherichia coli Rosetta2 DE3 by fluorescent labeled Flu-Bid peptide based fluorescence polarization assay

Bcl-2-like protein 1 [2] = target: T2, Bcl-2-like protein 1 (Homo sapiens, UniProt Q07817)
Bcl-2-related protein A1 [3] = target: T3, Bcl-2-related protein A1 (Homo sapiens, UniProt Q16548)
T3 sequence (Q16548 whole entry): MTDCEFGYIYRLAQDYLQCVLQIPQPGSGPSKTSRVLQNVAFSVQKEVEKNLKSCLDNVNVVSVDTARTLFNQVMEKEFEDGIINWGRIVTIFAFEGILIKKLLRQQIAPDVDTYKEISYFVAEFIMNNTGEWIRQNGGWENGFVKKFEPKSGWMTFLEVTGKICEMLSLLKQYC

[4] = target: T4, Apoptosis regulator Bcl-2 (Homo sapiens, UniProt P10415)
Bcl-2-related protein A1 [5] = target: T3, Bcl-2-related protein A1; remark: listed apart in the source
[6] = target: T4, Apoptosis regulator Bcl-2; assay: Inhibition of Bcl2 (unknown origin) expressed in Eu-Myc cells assessed as induction of cell death at 75 to 100 uM incubated for 24 hrs by violet LIVE/DEAD fixable dead cell staining based flow cytometry
Bcl-2-like protein 1 [7] = target: T2, Bcl-2-like protein 1; assay: Inhibition of Bcl-xL (unknown origin) expressed in Eu-Myc cells assessed as induction of cell death at 75 to 100 uM incubated for 24 hrs by violet LIVE/DEAD fixable dead cell staining based flow cytometry
[8] = target: T1, Induced myeloid leukemia cell differentiation protein Mcl-1; remark: listed apart in the source
Description: Binding affinity to immobilized biotin-labeled and N-terminal His6-tagged human Mcl-1 expressed in Escherichia coli Rosetta2 DE3 by biolayer interferometry

[9] = target: T5, Bcl-2-related protein A1 (Homo sapiens) (UniProt Q16548)
T5 sequence (whole entry): T3 sequence (Q16548 whole entry)

T2 sequence (Q07817 whole entry): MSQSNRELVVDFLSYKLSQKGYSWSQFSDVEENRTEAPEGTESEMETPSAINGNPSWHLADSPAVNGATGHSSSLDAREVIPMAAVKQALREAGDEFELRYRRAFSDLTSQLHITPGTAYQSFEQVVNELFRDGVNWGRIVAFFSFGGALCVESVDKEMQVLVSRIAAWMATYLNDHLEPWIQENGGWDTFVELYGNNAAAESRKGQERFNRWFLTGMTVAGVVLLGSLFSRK
T4 sequence (P10415 whole entry): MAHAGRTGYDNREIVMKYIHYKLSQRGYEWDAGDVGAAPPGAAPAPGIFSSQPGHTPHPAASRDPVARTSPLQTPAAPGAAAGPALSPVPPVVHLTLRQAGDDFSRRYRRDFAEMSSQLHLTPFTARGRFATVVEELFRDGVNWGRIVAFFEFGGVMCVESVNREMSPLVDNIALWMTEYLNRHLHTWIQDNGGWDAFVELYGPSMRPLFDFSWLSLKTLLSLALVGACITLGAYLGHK
T1 sequence (Q07820 whole entry): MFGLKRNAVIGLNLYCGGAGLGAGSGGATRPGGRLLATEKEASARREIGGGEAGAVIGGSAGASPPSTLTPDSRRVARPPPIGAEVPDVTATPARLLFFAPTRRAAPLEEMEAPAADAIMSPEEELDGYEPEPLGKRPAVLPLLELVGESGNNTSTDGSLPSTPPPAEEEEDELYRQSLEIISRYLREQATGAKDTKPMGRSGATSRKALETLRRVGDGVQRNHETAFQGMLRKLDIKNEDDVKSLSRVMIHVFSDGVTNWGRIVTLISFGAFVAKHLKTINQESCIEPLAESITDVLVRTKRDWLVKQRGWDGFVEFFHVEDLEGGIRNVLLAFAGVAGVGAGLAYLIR

Row | Structure (SMILES) | pKi [1] | pKi (Bcl-2-related protein A1 [3]) | also measured
1 | CC(C)(C)c1ccc(N2CCN(S(=O)(=O)Nc3ccc(SCCC(=O)Nc4ccccc4)cc3C(=O)O)CC2)cc1 | 6.02 | 5.96 | pKi (Bcl-2-like protein 1 [2]): < 4.60
2 | O=C(CCCSc1ccc(NS(=O)(=O)c2ccccc2)c(C(=O)O)c1)Nc1ccccc1 | 4.48 | < 4.15 | 
3 | O=C(O)c1cc(SCCc2ccccc2)ccc1NS(=O)(=O)N1CCN(Cc2ccccc2)CC1 | 6.08 | 6.00 | 
4 | O=C(O)c1cc(SCCc2ccccc2)ccc1NS(=O)(=O)c1cccs1 | 5.70 | 5.47 | 
5 | COc1cccc(CCSc2ccc(NS(=O)(=O)N3CCN(c4ccc(C(C)(C)C)cc4)CC3)c(C(=O)O)c2)c1 | 7.13 | 7.00 | pKi (Bcl-2-like protein 1 [2]): 5.17; pKi [4]: 5.92
6 | O=C(O)c1cc(SCCc2ccccc2)ccc1NS(=O)(=O)N1CCN(c2ccccc2)CC1 | 6.24 | 6.12 | pKi (Bcl-2-like protein 1 [2]): 5.18; pKi [4]: 4.93
7 | O=C(O)c1cc(SCCc2ccccc2)ccc1NS(=O)(=O)c1ccc(C2CCCCC2)cc1 | 7.06 | 6.77 | 
8 | O=C(Cc1ccccc1)Nc1ccc(NS(=O)(=O)c2ccccc2)c(C(=O)O)c1 | 4.15 | < 4.15 | 
9 | O=C(O)c1cc(SCCc2ccccc2)ccc1NS(=O)(=O)c1ccc(-c2ccccc2)nc1 | 6.70 | 6.55 | 
10 | O=C(O)c1cc(SCCc2ccccc2)ccc1NS(=O)(=O)c1ccc(Br)cc1 | 6.09 | 6.09 | 
11 | O=C(O)c1cc(SCCc2ccccc2)ccc1NS(=O)(=O)c1ccc(-c2ccccc2)cc1 | 7.05 | 6.82 | 
12 | O=C(O)c1cc(SCCc2ccccc2)ccc1NS(=O)(=O)CCc1ccccc1 | 5.77 | 5.77 | 
13 | CC(C)(C)c1ccc(N2CCN(S(=O)(=O)Nc3ccc(SCCc4cccc(O)c4)cc3C(=O)O)CC2)cc1 | 6.54 | 6.60 | 
14 | CC(C)(C)c1ccc(N2CCN(S(=O)(=O)Nc3ccc(SCCc4ccccc4)cc3C(=O)O)CC2)cc1 | 7.14 | 7.08 | pKd (Bcl-2-related protein A1 [5]): 6.04; pKi (Bcl-2-like protein 1 [2]): 5.46; inhibition [6]: Active; pKi [4]: 5.92; inhibition (Bcl-2-like protein 1 [7]): Active; pKd [8]: 6.31; Activity [9]: Active
15 | O=C(O)c1cc(NCCc2ccccc2)ccc1NS(=O)(=O)c1ccccc1 | 5.33 | 5.42 | 
16 | O=C(O)c1cc(SCc2ccccc2)ccc1NS(=O)(=O)c1ccccc1 | 5.59 | 5.52 | 
17 | O=C(O)c1cc(SCCc2ccccc2)ccc1NS(=O)(=O)N1CCC(c2ccccc2)CC1 | 6.48 | 6.41 | 
18 | O=C(O)c1cc(SCCc2ccccc2)ccc1NS(=O)(=O)c1ccccc1 | 5.82 | 5.80 | pKi (Bcl-2-like protein 1 [2]): < 4.60; pKi [4]: < 4.60
19 | O=C(Nc1ccc(SCCc2ccccc2)cc1C(=O)O)c1ccccc1 | 5.57 | 5.34 | 
20 | O=C(O)c1ccccc1NS(=O)(=O)c1ccccc1 | 4.32 | < 4.00 | 
21 | O=C(CCc1ccccc1)Nc1ccc(NS(=O)(=O)c2ccccc2)c(C(=O)O)c1 | 4.72 | 4.21 | 
22 | Nc1ccc(SCCc2ccccc2)cc1C(=O)O | 5.47 | 5.43 | 
23 | O=C(O)c1cc(OCCc2ccccc2)ccc1NS(=O)(=O)c1ccccc1 | 5.21 | 4.97 | 
24 | O=C(CCSc1ccc(NS(=O)(=O)c2ccccc2)c(C(=O)O)c1)Nc1ccccc1 | 4.88 | 4.83 | 
